Test results as given in patent US8349836B2, “Phthalazine derivatives as inhibitors of protein kinase” (priority 2006, dated 2013).

target: p70S6K(h) (Homo sapiens, UniProt P23443); experiment: Enzyme Inhibition Assay (p70S6K(h)); type: biochemical; details: at 0.3 μM concentration
Experimental: Enzyme Inhibition Assay (p70S6K(h))
In a final reaction volume of 25 uL, p70S6K(h) (5-10 mU) is incubated with 8 mM MOPS pH 7.0, 0.2 mM EDTA, 100 iM KKRNRTLTV, 10 mM MgAcetate and [gamma-33P-ATP] (specific activity approx. 500 cpm/pmol, concentration as required). The reaction is initiated by the addition of the MgATP mix. After incubation for 40 minutes at room temperature, the reaction is stopped by the addition of 5 uL of a 3% phosphoric acid solution. 10 uL of the reaction is then spotted onto a P30 filtermat and washed three times for 5 minutes in 75 mM phosphoric acid and once in methanol prior to drying and scintillation counting.

Chain of p70S6K(h) (P23443 whole entry): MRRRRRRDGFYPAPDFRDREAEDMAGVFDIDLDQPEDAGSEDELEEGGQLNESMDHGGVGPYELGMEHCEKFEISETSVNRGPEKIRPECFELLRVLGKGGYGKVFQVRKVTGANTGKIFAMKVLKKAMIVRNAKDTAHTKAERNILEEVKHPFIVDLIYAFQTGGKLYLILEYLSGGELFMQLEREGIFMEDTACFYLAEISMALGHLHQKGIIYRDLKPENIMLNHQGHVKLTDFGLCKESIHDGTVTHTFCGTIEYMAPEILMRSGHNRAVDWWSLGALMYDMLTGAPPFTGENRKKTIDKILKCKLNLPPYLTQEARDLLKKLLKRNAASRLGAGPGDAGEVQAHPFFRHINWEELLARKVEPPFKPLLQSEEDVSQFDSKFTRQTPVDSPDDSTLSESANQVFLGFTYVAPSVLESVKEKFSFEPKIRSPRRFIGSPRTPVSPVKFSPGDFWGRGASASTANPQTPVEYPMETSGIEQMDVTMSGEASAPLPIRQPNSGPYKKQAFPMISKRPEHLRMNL

Row | inhibition at 0.3 µM [%] | Compound
1 | > 50 | O=c1[nH]nc(Cl)c2cc(NCc3cccc4c3OCCCO4)ccc12 [Example 107, 4-Chloro-6-[(3,4-dihydro-2H-benzo[b][1,4]dioxepin-6-ylmethyl)-amino]-2H-phthalazin-1-one]
2 | > 50 | O=c1[nH]nc(Cl)c2cc(N3CCN(c4ccccc4)CC3)ccc12 [Example 126, 4-Chloro-6-(4-phenyl-piperazin-1-yl)-2H-phthalazin-1-one]

Further lines, the molecule ahead of its results:

Row | Compound | inhibition at 0.3 µM [%]
3 | Oc1nnc(Cl)c2cc(NCc3cccc(C(F)(F)F)c3)ccc12 [Example 24, 4-chloro-6-(3-trifluoromethyl-benzylamino)-phthalazin-1-ol] | > 50
4 | O=C(Nc1cccc(C(F)(F)F)c1)c1ccc2c(O)nnc(Cl)c2c1 [Example 26, 4-Chloro-1-hydroxy-phthalazine-6-carboxylic acid (3-trifluoromethyl-phenyl)-amide] | > 50
5 | O=C(Nc1cccc(C(F)(F)F)c1)c1ccc2c(O)nnc(I)c2c1 [Example 42, 4-Iodo-1-hydroxy-phthalazine-6-carboxylic acid (3-trifluoromethyl-phenyl)-amide] | > 50
6 | O=c1[nH]nc(Cl)c2ccc(Nc3cccc(C(F)(F)F)c3)cc12 [Example 64, 4-Chloro-7-(3-trifluoromethyl-phenylamino)-2H-phthalazin-1-one] | > 50
